Experimental data taken from paper PMC7707092, “Discovery and characterization of ORM‐11372, a novel inhibitor of the sodium‐calcium exchanger with positive inotropic activity” (British Journal of Pharmacology, 2020).
Converted amounts (≈) assume the structure as drawn. Read-outs that look alike come from different tables or passages of the source.

Experiments:
Solubility = assay type: physicochemical; details: pH 7.4 phosphate buffer; for solubility: phosphate buffer, pH 7.4, aqueous buffer
human NCX 1.1 = target: T1, human NCX 1.1 (Homo sapiens, UniProt P32418); assay: Fluorescence screening assay for hNCX 1.1 inhibition (reverse mode, Sf9 cells); assay type: cell-based; details: for IC50: Sf9 cells expressing human NCX1.1, reverse mode, fluorescence, n=3 assays
T1 construct: expressed in transfected cells
Description: Spodoptera frugiperda (Sf9; RRID:CVCL_0549) cells are widely used for the transient and stable expression of recombinant proteins. Here, Sf9 cells were stably transfected with human NCX 1.1 and maintained in spinner flasks with insect cell culture medium (TNM‐FH), supplemented with 10% FBS, antibiotic–antimycotic solution, and 50 μg·ml^−1 of blasticidin at 28°C in a non‐humidified, CO2‐free atmosphere. The Sf9 cell suspension was subcultured three times a week.
NCX reverse mode activity was stimulated via a 50% dilution of the extracellular Na^+ level using the internal pipettor of FLEXstation, a fluorescence imaging plate reader (Molecular Devices, USA), while simultaneously monitoring intracellular calcium levels. After dilution, the concentration of other ions remained the same, but Na^+ concentration was diluted to the half of original concentration of 172 to 86 mM. For Sf9 insect cells, normal extracellular Na^+ ion concentration is 172 mM. Typically, 50 μl of a solution containing 150,000–200,000 Sf9–NCX cells was loaded onto each well of a 96‐well plate. Cells were preincubated with the intracellular calcium dye Fluo‐4 and Fluo‐6, and the concentrations of the test compound (three replicates) were determined for about 1 h at room temperature before experimentation. The extracellular solution contained (in mM) 172 NaCl, 10 HEPES, 1 CaCl2, 1.2 MgCl2, 0.33 NaH2PO4, 5 glucose, and 5 probenecid. The pH was adjusted to 7.4 with NaOH. The extracellular Na^+ was diluted by the addition of a Na^+‐free extracellular solution (containing in mM: 147 N‐methyl‐D‐glucamine (NMDG), 10 HEPES, 1 CaCl2, 1.2 MgCl2, 0.33 NaH2PO4, and 5 glucose with the pH adjusted by HCl to 7.4)‐induced robust and reproducible elevation of intracellular calcium. The osmolarity of both solutions was adjusted to 340–355 mOsm in order to match the Sf9 cell media osmolarity. In each plate, the IC50 determination for each test compound was based on relative fluorescence changes in comparison with control and 5‐mM nickel acetate‐induced NCX inhibition.

NCX = system: NCX; design: method as in Jost et al., 2013; Kohajda et al., 2016; details: Dog, reference not given, ref Jost et al., 2013, Kohajda et al., 2016, cited from earlier work
hNCX1 = hNCX1 (Homo sapiens, UniProt P32418); assay: Confirmatory fluorescence assay for hNCX1 inhibition (forward mode, HEK293 cells, Charles River); assay type: cell-based; details: HEK293, forward mode, Table S2; read-out: hNCX1-HEK IC50
Description: A confirmatory hNCX1 inhibition assay was performed in Charles River Laboratories, Cleveland. Briefly, HEK293 cells stably expressing hNCX1 were plated in 384‐well black wall, clear‐bottom microtitre plates and the next day loaded with Fluo‐8 for 30 min at 37°C. A plate was inserted into a FLIPR^TETRA, and a baseline was recorded during a preincubation period where test compound or vehicle in a Na^+‐free HB‐PS containing thapsigargin (6 μM) and […] (30 μM) was added to each well for ~5 min. Next, the NCX1 stimulation period was recorded in which Na^+‐containing HB‐PS (with 2‐μM thapsigargin and 10‐μM FCCP) was added. The experiments were performed at room temperature. The kinetic data generated were reduced for each well to maximum relative fluorescence units (RFU) minus minimum RFU after subtracting bias based on the first sample. The mean of the max–min RFU values during the stimulation period for the 3–4 replicates at each concentration on a plate was then plotted versus concentration and fitted to a Hill equation.

hERG = hERG (Homo sapiens, UniProt Q12809); assay: hERG IC50 of Table 1 / Table S2 (method not assigned); assay type: cell-based; details: n=4 assays
Chain of hERG (Q12809 whole entry): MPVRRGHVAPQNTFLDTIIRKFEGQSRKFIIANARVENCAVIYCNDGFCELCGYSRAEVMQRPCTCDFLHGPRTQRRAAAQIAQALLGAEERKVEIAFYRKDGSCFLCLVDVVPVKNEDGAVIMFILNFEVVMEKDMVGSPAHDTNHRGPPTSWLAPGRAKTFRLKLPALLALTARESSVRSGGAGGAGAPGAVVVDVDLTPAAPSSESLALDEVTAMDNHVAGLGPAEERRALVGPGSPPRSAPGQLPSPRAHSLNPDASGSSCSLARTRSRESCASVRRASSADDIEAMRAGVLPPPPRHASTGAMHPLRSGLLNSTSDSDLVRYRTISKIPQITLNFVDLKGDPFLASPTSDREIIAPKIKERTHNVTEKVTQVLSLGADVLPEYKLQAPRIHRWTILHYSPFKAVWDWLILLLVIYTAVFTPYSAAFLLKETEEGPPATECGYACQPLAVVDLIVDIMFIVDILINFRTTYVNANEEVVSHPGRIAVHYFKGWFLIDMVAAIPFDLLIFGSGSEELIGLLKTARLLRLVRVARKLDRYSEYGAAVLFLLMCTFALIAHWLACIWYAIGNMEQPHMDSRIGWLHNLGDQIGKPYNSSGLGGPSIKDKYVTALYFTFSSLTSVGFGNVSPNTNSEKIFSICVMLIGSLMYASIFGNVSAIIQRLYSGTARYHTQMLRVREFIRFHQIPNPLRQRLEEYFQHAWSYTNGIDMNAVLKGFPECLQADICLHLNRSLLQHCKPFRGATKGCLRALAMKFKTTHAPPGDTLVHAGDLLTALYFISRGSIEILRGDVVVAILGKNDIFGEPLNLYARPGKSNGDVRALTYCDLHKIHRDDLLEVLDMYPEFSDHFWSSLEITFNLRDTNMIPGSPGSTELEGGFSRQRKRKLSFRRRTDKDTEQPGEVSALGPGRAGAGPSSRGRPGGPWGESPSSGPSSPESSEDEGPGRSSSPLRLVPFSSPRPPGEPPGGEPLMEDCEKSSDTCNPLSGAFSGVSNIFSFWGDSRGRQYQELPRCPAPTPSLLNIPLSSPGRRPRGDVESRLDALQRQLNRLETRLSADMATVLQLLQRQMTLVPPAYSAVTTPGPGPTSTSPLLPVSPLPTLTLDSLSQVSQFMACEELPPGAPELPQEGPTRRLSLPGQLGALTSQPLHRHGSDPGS

L‐type calcium channel = L‐type calcium channel inhibition, fluorescence assay in IMR‐32 cells; assay type: cell-based, human; details: KCl depolarization, n=4 assays, read-out: L‐type Ca^2+ IC50
Description: CHO cells stably expressing either hERG1a (KV11.1) channels (KCNH2; RRID:CVCL_H512) or human 5‐HT2B receptors were cultured at 37°C in a 5% CO2/95% air atmosphere in the Ham's Nutrient Mixture F‐12 (HAM F‐12) medium supplemented with 10% FBS (heat inactivated), 100 μg·ml^−1 of hygromycin B (Invitrogen), and 100 μg·ml^−1 of geneticin or 100 IU·ml^−1 of penicillin and 100 IU·ml^−1 of streptomycin, 25‐mM HEPES, 500 μg·ml^−1 of geneticin, and 250 μg·ml^−1 of Zeocin®. Adhered cells were detached using either Detachin® solution or trypsin and replated twice a week. HEK 293 (RRID:CVCL_0045) and IMR‐32 cells (CCL‐127; RRID:CVCL_0346) were cultured similarly but maintained instead in DMEM, supplemented with 10% FBS (heat inactivated), 100 IU·ml^−1 of penicillin and 100 IU·ml^−1 of streptomycin, and 25‐mM HEPES, and in the case of the IMR‐32 cell line, with minimum essential medium (MEM) non‐essential amino acids. IMR‐32 cells are derived from a human neuroblastoma and endogenously express L‐type (CaV1.x) calcium channel (Sher, Gotti, Pandiella, Madeddu, & Clementi, 1988).
Undifferentiated IMR‐32 cells were harvested, centrifuged, and resuspended in a probenecid‐Ringer solution consisting (in mM) 150 NaCl, 3 KCl, 1.2 MgCl2, 1 CaCl2, 20 HEPES, 5 glucose and 2.5 probenecid (pH 7.4 adjusted with NaOH, osmolarity 320–324 mOsm). We added 0.04% Pluronic F‐127 and Fluo‐4 to this solution, and after incubating the cells for 30 min at room temperature, these additives were removed from the probenecid‐Ringer solution by centrifugation and resuspension. The cell suspension was pipetted (250,000 cells in 75 μl per well) into a 96‐well plate, into which the test compound (75 μl per well at […] the final concentration; five concentrations with eight replicates) had already been added. The plate was centrifuged once (5 min, at 287 x g) to ensure that the cells were moved to the bottom of the wells. FLEXstation was then used to measure the increase in intracellular calcium at 37°C, following depolarization, which was induced by the addition (50 μl per well) of a KCl‐Ringer solution containing (in mM) 200 KCl, 20 CaCl2, 1.2 MgCl2, 20 HEPES and 2.5 probenecid respectively (pH adjusted to 7.4 with KOH, with an osmolarity of 320–324 mOsm).

healthy rats = assay: In vivo haemodynamics in healthy rats (supplement); design: species or system rat
Excerpt: In vivo haemodynamics in healthy rats
Experimental Animals and General Study Protocol
Rat was selected to the study as it is the most widely used rodent species in the toxicology studies performed for the small molecules during the drug development. […]
All animal experiments were made according to European Community Guidelines for the use of experimental animals and approved by Finnish National Animal Experiment Board. All studies complied with the ARRIVE guidelines, (NC3Rs Reporting Guidelines Working Group, 2010).
Specific pathogen free animals were housed in half -barrier rooms where special protecting clothing for personnel was required. Animal rooms were cleaned regularly 3 times per week and cages and bottles were […]
changed regular intervals once a week. Temperature was maintained at 22 ± 2°C and humidity at 55 ± 15%.
Light-dark cycle was lights on from 06.00 to 20.00h.
Male Sprague-Dawley rats (Harlan, Netherlands B.V.) were housed in polycarbonate cages (Makrolon® IV with stainless steel wire mesh lids). Maximally 5 rats were housed per cage with aspen chip bedding (Tapvei Ky, Kaavi, Finland). Rats had free access to water (twice filtered, Espoon Vesi) and rodent diet (SDS RM1
(P) SQC pelleted diet, Special Diet Services Ltd, Witham, England). Acclimation period before experiments was at least 5 days. Healthy 10-12 weeks aged weighing 300-400 g rats were randomized to ORM-11372, dobutamine or vehicle group.
At the end of the haemodynamic experiments, rats were terminated with an overdose of pentobarbital.
Anesthesia and ventilation
Rats were anaesthetised with isoflurane (2.25-2.5 %, Baxter) in carbogen (95 % O2 and 5 % CO2) and nitrous oxide (1:1) using a small rodent ventilator (Ugo Basile 7025, ~10 ml/kg, 60 strokes/min). The rats were infused with 0.9 % NaCl in […] at the stabilization and baseline level. Animals were placed on a heating table (+38°C). Tracheas were cannulated.
Systemic blood (SP) and left ventricular pressures (LVP) were measured with pressure transducers (BP:
Isotec, Hugo Sachs Elektronic, Germany; LVP: Mikro-Tip transducer SPR-249, Millar Instruments, USA). The signal was amplified (DC-bridge amplifier type 660, Hugo Sachs Elektronik, Germany), digitised (I/O connector block type SCB-68, National Instruments, USA), recorded and analysed (IHME 1.0.9, Fision Ltd, Finland). Left ventricular inotropic effect (LV +dP/dtmax) and relaxation (LV -dP/dtmin) and heart rate (HR) were analysed from LVP signal.
Blood sampling for the evaluation of plasma levels of the drug
At the end of each infusion, the blood samples (300-500 µl) were taken into chilled EDTA polypropylene tube (CapiJect®, Terumo) and centrifuged (4000 rpm, 10 min, at 4°C). Plasma was immediately frozen in polypropylene tubes and stored at –20°C. ORM-11372 and dobutamine were extracted from plasma samples using a liquid–liquid extraction and analysed using liquid chromatography–tandem mass spectrometry (Agilent Technologies series 1100 liquid chromatographic system and a Sciex LC-MS/MS API 4000 mass spectrometry). The lower limit of quantification for total plasma concentrations were 32.0 and 5.00 ng/ml from total for ORM-11372 and dobutamine, respectively. […]
The effects of dobutamine on blood pressure varies partially due to the use of racemate as active ingredient in the pharmaceutical formulation. (-)-dobutamine is α1-agonist and therefore causes increases in cardiac output and peripheral resistance. (+)-dobutamine acts via β1- and β2-adrenoceptors which leads to increase in heart rate and reduction in blood pressure 16.
Figure S20 Haemodynamics in healthy rats
Effects of ORM-11372 and dobutamine on haemodynamics in isoflurane anesthetized 10-12 weeks aged male Sprague-Dawley rats (Harlan, Netherlands B.V.) weighing 300-400 g. Shown are mean ± SEM and individual effects on the left ventricular contractility (LV+dP/dtmax, panel A), relaxation (LV-dP/dtmax, panel B), heart rate (panel C), and systolic arterial blood pressure (SAP, paned D). […]

[1] = system: human ventricular trabeculae; details: 1 or 2 Hz; ORM‐11372 any tested concentration; dofetilide 0.1 μM (positive control)

## O=[N+]([O-])c1ccc(Oc2ccc3c(c2)CCC(c2ccccc2)O3)nc1 (centres unmarked) [ORM-10103]
Solubility
  Solubility class: Insoluble (insoluble less than 10 µg/ml)
Human NCX 1.1
  IC50: 0.176 µM
NCX; read-out: IC50 NCX forward
  IC50: 0.96 µM
NCX; read-out: IC50 NCX reverse
  IC50: 0.78 µM
hNCX1
  IC50: 1.85 µM

## O=[N+]([O-])c1cccc(-c2ccc(CNc3ccc(F)c(Cl)c3)o2)c1 [ORM‐11023]
Human NCX 1.1
  IC50: 0.156 µM

## O=[N+]([O-])c1ccccc1-c1ccc(CNc2ccccc2)o1 [ORM‐11024]
Human NCX 1.1
  IC50: 0.875 µM

## Fc1ccc(NCc2ccc(-c3ccccc3Cl)o2)cc1Cl [ORM‐11165]
Solubility; read-out: Solubility class
  solubility: < 0.01 mg/mL
Human NCX 1.1
  IC50: 0.004 µM
hERG
  IC50: 9 µM
L‐type calcium channel
  IC50: 2 µM

## Fc1ccc(NCc2ccc(-c3ccc(Cl)cc3)o2)cc1Cl [ORM‐11190]
Human NCX 1.1
  IC50: 0.204 µM

## Fc1ccc(NCc2ccc(-c3cccc(Cl)c3)o2)cc1Cl [ORM‐11217]
Solubility; read-out: Solubility class
  solubility: 0.01 to 0.1 mg/mL (≈ 29.7 to 297 µM)
Human NCX 1.1
  IC50: 0.21 µM
hERG
  IC50: 14.6 µM

## Fc1ccc(NCc2coc(-c3ccccc3)n2)cc1Cl [ORM‐11298]
Solubility; read-out: Solubility class
  solubility: 0.01 to 0.1 mg/mL (≈ 33 to 330 µM)
Human NCX 1.1
  IC50: 0.031 µM
hERG
  IC50: > 10 µM

## Fc1ccc(NCc2ccc(-c3ccccn3)o2)cc1F [ORM‐11817]
Solubility; read-out: Solubility class
  solubility: < 0.01 mg/mL
Human NCX 1.1
  IC50: 0.003 µM
hERG
  IC50: 2.4 µM
L‐type calcium channel
  IC50: 10.4 µM

## Fc1ccc(NCc2csc(-c3ccccc3Cl)n2)cc1F [ORM‐11863]
Solubility; read-out: Solubility class
  solubility: < 0.01 mg/mL
Human NCX 1.1
  IC50: 0.0025 µM

## Fc1ccc(NCc2ccc(-c3cccnc3)o2)cc1F [ORM‐11875]
Solubility; read-out: Solubility class
  solubility: 0.01 to 0.1 mg/mL (≈ 34.9 to 349 µM)
Human NCX 1.1
  IC50: 0.09 µM

## O=[N+]([O-])c1ccccc1-c1ccc(CNc2ccc(F)c(Cl)c2)o1 [ORM‐120407, 3-chloro-4-fluoro-N-((5-(2-nitrophenyl)furan-2-yl)methyl)aniline]
Solubility; read-out: Solubility
  solubility: < 0.01 mg/mL
Solubility; read-out: Solubility class
  solubility: < 0.01 mg/mL
Human NCX 1.1; 10 μM, fluorescence‐based assay, read-out: NCX1.1 inhibition
  inhibition at 10 µM: 87%
Human NCX 1.1
  IC50: 0.231 µM
hERG
  IC50: 2.1 µM
L‐type calcium channel
  IC50: 3.1 µM

## CC(CCc1ccc(O)cc1)NCCc1ccc(O)c(O)c1 (centres unmarked) [dobutamine, reference compound]
Healthy rats
  absolute maximum positive inotropic effect: 59%
  free plasma concentration achieving 25% positive inotropic effect: 25 ± 1.6 nM
  free plasma concentration at absolute maximum positive inotropic effect: 0.199 ± 0.017 µM
  free plasma concentration at the 10±2% (ORM-11372) / 16±3% (dobutamine) inotropic effect: 0.016 ± 0.0008 µM
Healthy rats; at free plasma concentration 4±0.3 nM (ORM-11372), 16±0.8 nM (dobutamine)
  positive inotropic effect: 16±3%
Healthy rats; free plasma concentration 96 nM
  increase in heart rate: 15±5%
Healthy rats; free plasma concentration 848 nM
  increase in heart rate: 25±7%
Healthy rats; free plasma concentrations 16 to 199 nM
  relaxation: no effects

## CN(CCOc1ccc(NS(C)(=O)=O)cc1)CCc1ccc(NS(C)(=O)=O)cc1 [dofetilide, reference compound]
[1]
  STV and triangulation (pro‐arrhythmia markers): increased
